From US6043357A, “HIV protease inhibitors” (The University of Queensland, priority 1994, dated 2000) come the findings set out here.

For the experiment, the target named is HIV-1 protease (Human immunodeficiency virus type 1 group M subtype B, UniProt P03369). The experiment is described as follows: biochemical. The method, then:
HIV-1 protease activity was measured at 37° C. using a continuous fluorimetric assay based on the method of Toth et al., (Toth et al., 1990, Int. J. Pept. Res. 36 544-550). The substrate, 2-aminobenzoyl-threonine-isoleucine-norleucine-(p-nitro)-phenylalanine-glutamine-arginine-NH2 (Abz-NF^* -6), was synthesised by solid phase peptide synthesis (Kent et al., 1991, In: Peptides 1990: Proceedings of the Twenty-First European Peptide Symposium (Girault, E. and Andrew, D. eds.) pp 172-173, ESCOM, Leiden). Enzyme activity was measured as the increase in fluorescence intensity upon substrate hydrolysis. The change in fluorescence intensity was monitored with a Perkin Elmer LS50B luminescence spectrometer fitted with a thermostatted micro cuvette holder. Measurements were carried out using an excitation wavelength of 320 nm (bandwith 5 nm) and an emission wavelength of […] (bandwith 5 nm).
Inhibition assays were routinely carried out at pH 6.5 and μ=0.1 M using a single substrate concentration. The assay mixtures contained 50 μM Abz-NF^* -6 in 100 mM 2-(N-morpholino)ethanesulphonate buffer, containing 10% (v/v) glycerol and 50 μg/ml bovine serum albumin, in a total final volume of 400 μl. Where inhibitors had to be dissolved in dimethyl sulphoxide or other organic solvents, the final concentration of solvent in the control and inhibition assays were kept absolutely constant because of the severe inhibitory effect of some solvents on the enzyme activity (Bergman et al., 1992, 17th Ann. Lorne Conf. on Protein Struct. and Funct. Abstr.). In all assays, the reaction was initiated by the addition of 10 μl of enzyme solution.

The mark [1] stands for this setting: Table 5, pH 6.5, 37° C., read-out: IC50.
Where [2] appears, read: Table 2, pH 6.5, 37° C., read-out: IC50.
Setting [3] is: Table 9, R isomer, read-out: IC50.
The mark [4] stands for this setting: Table 9, S isomer, read-out: IC50.
[5] abbreviates: Table 7, pH 6.5, 37° C., read-out: IC50.
Setting [6] is: Table 4, rac (R and S isomer together), read-out: IC50.
Where [7] appears, read: Table 1, pH 6.5, 37° C., read-out: IC50.

Entries after “also recorded” stand apart in the source; their conditions may differ. Read-outs that look alike come from different tables or passages of the source.

In the case of `CCOC(=O)CCCOc1ccc(C[C@H](NC(=O)[C@H](CC(N)=O)NC(=O)OC(C)(C)C)[C@H](O)CN2CCC[C@H]2C(=O)NC(C)(C)C)cc1` [Compound 36], the “protease inhibition, stated in words” value is on record as “much less active than 38 & 39”. Also, the IC50 under setting [1] was 7050 nM.

`CC(C)(C)NC(=O)[C@@H]1CCCCN1C[C@H](O)[C@@H]1Cc2ccc(cc2)OCCCC(=O)N[C@@H](CC(N)=O)C(=O)N1` [Compound 45] returned a half-inhibitory concentration (IC50) of 5600 nM.

On to `CC[C@H](C)[C@H](NC(=O)[C@@H]1CCCN1C[C@@H](O)[C@@H]1Cc2ccc(cc2)OCC(=O)N[C@@H](Cc2ccc(O)cc2)C(=O)N[C@@H](CC(N)=O)C(=O)N1)C(=O)N[C@H](C(N)=O)C(C)C` [Compound 19], for which half-maximal inhibition (IC50) required 165 nM.

Consider `CCOC(=O)CCCOc1ccc(C[C@H](NC(=O)[C@H](CC(N)=O)NC(=O)OC(C)(C)C)[C@@H](O)CN2CCC[C@H]2C(=O)NC(C)(C)C)cc1` [Compound 37], for which the “protease inhibition, stated in words” value is recorded as “much less active than 38 & 39”. In addition, the IC50 under setting [1] amounted to 22000 nM.

In the case of `CC(C)N(C(=O)[C@@H]1CCCN1C[C@H](O)[C@@H]1Cc2ccc(cc2)OCCCC(=O)N[C@@H](CC(N)=O)C(=O)N1)C(C)C` [Compound 41], the half-inhibitory concentration (IC50) stood at 290000 nM and the “protease inhibition, stated in words” value was “much less active”.

For the molecule `CC[C@H](C)[C@H](NC(=O)[C@@H]1CCCN1C[C@@H](O)[C@@H]1Cc2ccc(cc2)OCCCCC(=O)N[C@@H](CC(N)=O)C(=O)N1)C(=O)N[C@H](C(N)=O)C(C)C` [Compound 12], under setting [2], the IC50 was 165 nM.

As to `CC(C)CNC(=O)C(Cc1ccccc1)NC[C@@H](O)[C@@H]1Cc2ccc(cc2)OCCCC(=O)N[C@@H](CC(N)=O)C(=O)N1` (stereo partly shown) [Compound 34], the IC50 was determined as 5200 nM.

For the molecule `CC[C@H](C)[C@H](NC(=O)[C@@H]1CCCN1C[C@H](O)[C@@H]1Cc2ccc(cc2)OCCCCC(=O)N[C@@H](CC(N)=O)C(=O)N1)C(=O)N[C@H](C(N)=O)C(C)C` [Compound 13], the “protease inhibition, stated in words” value is on record as “no dramatic increase in potency”. In addition, the IC50 under setting [2] is 26 nM.

Regarding “Ac-LNFPIV-NH2 [Compound 85, reference compound]”, the concentration for half-maximal inhibition (IC50) came to 60 nM under setting [3] and 9 nM under setting [4].

As to `CC(C)[C@@H]1NC(=O)CCCOc2ccc(cc2)C[C@@H]([C@H](O)CN2CCN(Cc3ccccc3)CC2C(=O)NC(C)(C)C)NC1=O` (stereo partly shown) [Compound 82], the “protease inhibition, stated in words” value was “increased potency”.

`CC(C)(C)NC(=O)CN(Cc1ccccc1)C[C@H](O)[C@@H]1Cc2ccc(cc2)OCCCC(=O)N[C@@H](CC(N)=O)C(=O)N1` [Compound 29] had an IC50 of 46000 nM.

For “Ac-LVFFIV-NH2 [Compound 86, reference compound]”, the IC50 under setting [3] stood at 5 nM.

`CC[C@H](C)[C@@H]1NC(=O)[C@@H](NC[C@@H](O)[C@H](Cc2ccccc2)NC(=O)[C@@H](NC(=O)[C@H](CC(C)C)NC(C)=O)C(C)C)Cc2ccc(cc2)OCCCCNC1=O` [Compound 88]: the “protease inhibition, stated in words” value is “little effect”. Also, the half-maximal inhibitory concentration (IC50) under setting [3] was determined as 5 nM.

Consider `CC[C@H](C)[C@H](NC(=O)[C@@H]1CCCN1C[C@@H](O)[C@@H]1Cc2ccc(cc2)OCCCC(=O)N[C@@H](CC(N)=O)C(=O)N1)C(N)=O` [Compound 4], for which the IC50 (read-out: IC50) amounted to 9500 nM.

In the case of `CC(C)CN(CC(=O)NC(C)(C)C)C[C@H](O)[C@@H]1Cc2ccc(cc2)OCCCC(=O)N[C@@H](CC(N)=O)C(=O)N1` [Compound 27], the “protease inhibition, stated in words” value was “only μM instead of nM”. For the same molecule, under “read-out: IC50”, the IC50 amounted to 1900 nM.

As to `CC(C)CCN(C[C@@H](O)[C@@H]1Cc2ccc(cc2)OCCCC(=O)N[C@@H](C(C)C)C(=O)N1)S(=O)(=O)c1ccc(N)cc1` [Compound 60], the “protease inhibition, stated in words” value is listed as “Greater activity; also recorded: potent inhibitors of HIV-1 protease”. For the same molecule, under setting [5], the IC50 was 2 nM.

As for `CCOC(=O)CCCOc1ccc(C[C@H](NC(=O)[C@H](CC(N)=O)NC(C)=O)[C@H](O)CN2CCC[C@H]2C(=O)N[C@H](C(=O)N[C@H](C(N)=O)C(C)C)[C@@H](C)CC)cc1` [Compound 14], the “protease inhibition, stated in words” value is “slightly reduced potency”. In addition, the IC50 under setting [2] came to 350 nM.

As for `CC(C)NC(=O)C(Cc1ccccc1)NC[C@@H](O)[C@@H]1Cc2ccc(cc2)OCCCC(=O)N[C@@H](CC(N)=O)C(=O)N1` (stereo partly shown) [Compound 32], the IC50 under setting [6] came out at 42000 nM.

As for `CC[C@H](C)[C@H](NC(=O)[C@H](Cc1ccccc1)NC[C@@H](O)[C@@H]1Cc2ccc(cc2)OCCCC(=O)N[C@@H](C(C)C)C(=O)N1)C(=O)N[C@H](C(N)=O)C(C)C` [Compound 46], the “protease inhibition, stated in words” value is given as “there was not a great deal of difference”.

As for `CC[C@H](C)[C@H](NC(=O)[C@@H]1CCCN1C[C@@H](O)[C@@H]1Cc2ccc(cc2)OCC(O)C(O)C(=O)N[C@@H](CC(N)=O)C(=O)N1)C(=O)N[C@H](C(N)=O)C(C)C` (stereo partly shown) [Compound 10], the “protease inhibition, stated in words” value is given as “no improvement was observed in potency compared to 3 or 9”. The half-inhibitory concentration (IC50) under setting [7] turned out to be 600 nM.

With `CC(C)CCN(C[C@@H](O)[C@@H]1Cc2ccc(cc2)OCCCCC(=O)N[C@@H](C(C)C)C(=O)N1)S(=O)(=O)c1ccc(N)cc1` [Compound 62], the IC50 under setting [5] stood at 1 nM.

For the molecule `CC(C)[C@@H]1NC(=O)CCCOc2ccc(cc2)C[C@@H]([C@@H](O)CN2CCN(Cc3ccccc3)CC2C(=O)NC(C)(C)C)NC1=O` (stereo partly shown) [Compound 83], the “protease inhibition, stated in words” value is on record as “increased potency”.

Consider `CC[C@H](C)[C@@H]1NC(=O)[C@@H](NC[C@H](Cc2ccccc2)NC(=O)OC(C)(C)C)Cc2ccc(cc2)OCCCNC1=O` [Compound 90, [2S, 11'S, 8'S]-2-[t-butoxycarbonyl]amino-3-phenyl-1-[11'-[7',10'-dioxo-8'-(-1-methylpropyl)-2'-oxa-6',9'-diazabicyclo[11.2.2]heptadeca-13',15',16'-triene]amino]propane], for which the IC50 under setting [3] was determined as 150 nM.

`CC(C)(C)NC(=O)CN(Cc1ccccc1)C[C@@H](O)[C@@H]1Cc2ccc(cc2)OCCCC(=O)N[C@@H](CC(N)=O)C(=O)N1` [Compound 28] came in with an IC50 of 1500 nM.

Take `CC(C)NC(=O)C(Cc1ccccc1)NC[C@H](O)[C@@H]1Cc2ccc(cc2)OCCCC(=O)N[C@@H](CC(N)=O)C(=O)N1` (stereo partly shown) [Compound 33]: under setting [6], the 50% inhibitory concentration (IC50) was found to be 42000 nM.

Consider `CC[C@H](C)[C@H](NC(=O)[C@@H]1CCCN1C[C@@H](O)[C@@H]1Cc2ccc(cc2)OCCNCC(=O)N[C@@H](CC(N)=O)C(=O)N1)C(=O)N[C@H](C(N)=O)C(C)C` [Compound 8], for which, under setting [7], the IC50 amounted to 700 nM.

For `CC(C)CCN(C[C@@H](O)[C@@H]1Cc2ccc(cc2)OCCCCCC(=O)N[C@@H](C(C)C)C(=O)N1)S(=O)(=O)c1ccc(N)cc1` [Compound 64], the half-inhibitory concentration (IC50) (read-out: IC50) came to 2 nM.

As for “Ac-SLNFPIV-NH2 [Compound 84, reference compound]”, the IC50 by setting is: under setting [3], 22 nM; under setting [4], 1 nM.

On to `CC(=O)Nc1ccc(S(=O)(=O)N(CCC(C)C)C[C@H](O)[C@@H]2Cc3ccc(cc3)OCCCC(=O)N[C@@H](C(C)C)C(=O)N2)cc1` [Compound 59], for which the “protease inhibition, stated in words” value is recorded as “potent inhibitors of HIV-1 protease”.

Regarding `CC(C)(C)NC(=O)[C@@H]1CCCN1C[C@H](O)[C@@H]1Cc2ccc(cc2)OCCCC(=O)N[C@@H](CC(N)=O)C(=O)N1` [Compound 39], for the setting “read-out: IC50”, the half-maximal inhibitory concentration (IC50) was found to be 490 nM.

In turn, `CC[C@H](C)[C@H](NC(=O)[C@@H]1CCCN1C[C@@H](O)[C@@H]1Cc2ccc(cc2)OCCCC(=O)N[C@@H](CC(N)=O)C(=O)N1)C(=O)N[C@H](C(N)=O)C(C)C` [Compound 2] gave a half-inhibitory concentration (IC50) of 1580 nM.

For `CCCCCCOC(=O)COc1ccc(C[C@H](NC(=O)OC(C)(C)C)[C@H](O)CN[C@H]2Cc3ccc(cc3)OCCCNC(=O)[C@H]([C@@H](C)CC)NC2=O)cc1` [Compound 105], the IC50 (Table 10, pH 6.5, 37° C., read-out: IC50) was determined as 2 nM.

Turning to `CC[C@H](C)[C@H](NC(=O)[C@@H]1CCCN1C[C@H](O)[C@@H]1CSSCC(NC(C)=O)C(=O)NCC(=O)N[C@@H](CC(N)=O)C(=O)N1)C(=O)N[C@H](C(N)=O)C(C)C` (stereo partly shown) [Compound 17], the “protease inhibition, stated in words” value is reported as “activity was instead reduced”. In addition, the IC50 under setting [2] was found to be 28000 nM.

On to `CC[C@H](C)[C@H](NC(=O)[C@H](Cc1ccccc1)NC[C@H](O)[C@@H]1Cc2ccc(cc2)OCCCC(=O)N[C@@H](C(C)C)C(=O)N1)C(=O)N[C@H](C(N)=O)C(C)C` [Compound 47], for which the “protease inhibition, stated in words” value is “there was not a great deal of difference”.

Turning to `CCOC(=O)CCCOc1ccc(C[C@H](NC(=O)[C@H](CC(N)=O)NC(C)=O)[C@@H](O)CN2CCC[C@H]2C(=O)N[C@H](C(=O)N[C@H](C(N)=O)C(C)C)[C@@H](C)CC)cc1` [Compound 15], the “protease inhibition, stated in words” value is on record as “slightly reduced potency”. Also, under setting [2], the IC50 came to 45 nM.

With `CC(C)C1NC(=O)CCCOc2ccc(cc2)CC(C(O)CNC2Cc3ccc(cc3)OCCCNC(=O)C(CCC(N)=O)NC2=O)NC1=O` (stereo not shown) [Compound 131], the “protease inhibition, stated in words” value is given as “quite active”.
